Laboratory results as given in patent US20120083464A1, “NEUROPROTECTIVE PROPERTIES OF 5'-METHYLTHIOADENOSINE” (priority 2009, published 2012).
“Also recorded” adds a separate entry of the source.

Legend:
isolated optic nerve = assay: Simulated ischemia (OGD) in isolated optic nerves, LDH release; parameters: species or system Sprague Dawley rats; details: 1 h ischemia with iodoacetate + 2 h reperfusion; MTA 100-300 μM
Experimental: Ischemic damage was induced by substituting […] and adding 1 mM of the glyocolytic blocker iodoacetate (1 mM) for 1 h followed by 2 h of reperfusion in […] aCSF. Optic nerves during ischemia and reperfusion were incubated with vehicle, for controls, and with MTA or glutamate receptor antagonists, and subsequently processed for LDH release assay. The results are the mean±SEM of at least three different experiments performed in duplicate.
Cell viability in oligodendrocyte cultures was assayed after 24 h of exposure to MTA (1 μM to 3 mM) calcein-AM assays respectively followed by fluorimetry measurements (Synergy-HT). Oligodendrocyte protection from excitotoxicity and optic nerve damage after ischemia (1 hour+2 hours reperfusion) were examined using lactate dehydrogenase release assays in the presence or absence of MTA (100-300 μM for 3 hours).

caspase 3 activity = assay: NMDA-mediated increase in caspase 3 activity in mixed neuronal-glial culture; assay type: cell-based, Sprague-Dawley rat; details: NMDA 300 μM, MTA 250 μM or MK-801 10 μM
Experimental: Primary cultures of brain cortical neurons and glia were essentially prepared as described previously (Bruno et al., 2001, Eur. J. Neurosci., 13:1469-1478). The fronto-lateral cortical lobes were dissected out of Sprague-Dawley embryonic day 17 foetuses and were mechanically dissociated in Hanks' balanced solution. The cortical lobes were triturated by aspirating 7-10 times using a Pasteur pipette with a flame-narrowed tip. […]
Cortical neurons or mixed cortical neurons and glia were plated on poly-L-lysine-coated 6-well culture plates and after 7 DIV, cells were treated with vehicle or NMDA (300 μM) for different periods of time. […] Extracts were then centrifuged at 5,000×g for 10 min at 4° C., and protein content was determined by using the BCA protein assay according to the manufacturer instructions. Cell extracts (40 μg of protein) were incubated in reaction buffer (25 mM Hepes, 10% sucrose, 0.1% CHAPS, 10 mM DTT) containing 50 μM fluorescence substrate Z-DEVD-AFC at 37° C. for 1 h. Cleavage of the AFC fluorophore was determined in a spectrofluorometer at excitation wavelength of 400 nm and fluorescence was detected at an emission wavelength of 505 nm. Caspase 3 activity was expressed as units of fluorescence/mg of protein/h (Posadas et al., 2009, Pharm. Res., In press).

| SMILES | OGD/ischemia-induced damage in isolated optic nerve (LDH release) (isolated optic nerve) | protection against NMDA-induced caspase 3 activity (caspase 3 activity) |
| --- | --- | --- |
| N[C@H](CCCP(=O)(O)O)C(=O)O [APV, (2R)-amino-5-phosphonovaleric acid] | reduced; also recorded: attenuated | – |
| N#Cc1cc2c(cc1[N+](=O)[O-])=NC(=O)C(=O)N=2 [CNQX, 6-cyano-7-nitro-quinoxaline-2,3-dione] | reduced; also recorded: attenuated | – |
| C[C@]12N[C@H](Cc3ccccc31)c1ccccc12 [MK-801, reference compound] | – | neuroprotective action |
